Here are results for 57 compounds from patent publication US7666875B2, “Hydantoin compounds” (Eisai R&D Management Co., Ltd., priority 2005, dated 2010).

One test has as its target T1, human T-bet (Homo sapiens, UniProt Q9UL17).
T1 construct: expressed in transfected cells; host or cells: engineered HEK cells (HEKT-bet)
T1 sequence (Q9UL17 1-535): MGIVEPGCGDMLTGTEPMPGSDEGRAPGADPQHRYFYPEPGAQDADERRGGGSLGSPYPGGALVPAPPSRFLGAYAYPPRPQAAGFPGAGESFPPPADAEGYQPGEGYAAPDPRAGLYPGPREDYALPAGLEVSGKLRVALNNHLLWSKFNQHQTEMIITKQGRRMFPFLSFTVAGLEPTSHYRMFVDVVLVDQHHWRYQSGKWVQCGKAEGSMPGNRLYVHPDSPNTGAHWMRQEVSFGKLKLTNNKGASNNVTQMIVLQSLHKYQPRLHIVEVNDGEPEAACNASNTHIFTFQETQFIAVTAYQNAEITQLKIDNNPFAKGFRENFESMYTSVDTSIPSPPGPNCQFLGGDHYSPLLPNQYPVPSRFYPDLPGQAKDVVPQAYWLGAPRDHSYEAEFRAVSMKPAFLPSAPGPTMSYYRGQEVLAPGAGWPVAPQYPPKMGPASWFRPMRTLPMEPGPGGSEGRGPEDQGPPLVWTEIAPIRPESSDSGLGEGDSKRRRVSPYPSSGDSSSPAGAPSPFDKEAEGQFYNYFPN
The test is described as follows: HEKT-bet-luc assay (T-bet dependent luciferase reporter in engineered HEK cells). The format is cell-based. The following applies: Table 2; HEKT-bet cells, compound 24 hours; IC50 normalized to reference ER-213038; read-out: IC50. The procedure:
HEKT-bet-luc assay: This assay measures a T-bet dependent reporter (luciferase) activity in engineered HEK cells that express a human T-bet and a T-box responsive element driving luciferase reporter. HEKT-bet cells were plated at 2×10^4/well in 96-well plate and compound was added into cell culture for 24 hours. Luciferase activity was measured by adding 50 μl of Steady-Glo reagent (Promega) and samples were read in Victor V reader (PerkinElmer). The IC50 values were calculated utilizing a maximum value corresponding to the amount of luciferase in the absence of a test compound and a minimum value corresponding to a test compound value obtained at maximum inhibition.
Determination of Normalized HEKT-bet IC50 values: Compounds were assayed in microtiter plates. Each plate included a reference compound which was ER-213038. The un-normalized IC50 value for a particular compound was divided by the IC50 value determined for the reference compound in the same microtiter plate to provide a relative potency value. The relative potency value was then multiplied by the established potency of the reference compound to provide the normalized HEKT-bet IC50 value. […] The IC50 values provided herein were obtained using this normalization method.
Regarding `COc1cc(CN2CCC3(CC2)C(=O)N(C/C=C/c2ccccc2)C(=O)N3Cc2ccc(-n3cccn3)cc2)cc(OC)c1` [compound 41], the IC50 – broadly, the concentration at which inhibition is half-maximal – came out at 45 nM.

Staying with this test, now noted: Table 3; HEKT-bet cells, compound 24 hours; IC50 normalized to reference ER-213038; read-out: IC50.
Take `CCN1C(=O)N(Cc2ccc3ccccc3c2)C(=O)C12CCN(Cc1ccc3ccccc3c1)CC2` [Example 95]: the IC50 worked out at 970 nM.

With `COCCN1C(=O)N(CC#Cc2cccc(OC)c2)C(=O)C12CCN(Cc1ccccc1)CC2` [Example 82], the IC50 was found to be 650 nM.

Regarding `COc1cccc(CN2C(=O)N(CCOCc3ccccc3)C3(CCN(Cc4ccccc4)CC3)C2=O)c1` [Example 112], the IC50 is 1570 nM.

Consider `COCCN1C(=O)N(CCOCc2ccccc2)C(=O)C12CCN(Cc1ccccc1)CC2` [Example 119], for which the concentration for half-maximal inhibition (IC50) stood at 1930 nM.

As for `COc1cc(CN2CCC3(CC2)C(=O)N(C/C=C/c2ccccc2)C(=O)N3CCn2cccc2)cc(OC)c1` [Example 83], the IC50 was determined as 667 nM.

As for `COCCN1C(=O)N(Cc2cccc(OC)c2)C(=O)C12CCN(Cc1cc(F)c(O)c(OC)c1)CC2` [Example 111], the IC50 amounted to 1550 nM.

As to `COCCN1C(=O)N(Cc2cccc(OC)c2)C(=O)C12CCN(Cc1cc(F)cc3c1OCOC3)CC2` [Example 102], the IC50 amounted to 1320 nM.

With `COCCN1C(=O)N(CCCCOc2ccccc2)C(=O)C12CCN(Cc1ccccc1)CC2` [Example 117], the IC50 was 1840 nM.

Regarding `COCCN1C(=O)N(Cc2ccc(C(=O)c3ccccc3)cc2)C(=O)C12CCN(Cc1ccccc1)CC2` [Example 100], the IC50 is 1240 nM.

As for `COc1cc(CN2CCC3(CC2)C(=O)N(Cc2cc(OC)cc(OC)c2)C(=O)N3CSC)cc(OC)c1` [Example 99], the IC50 amounted to 1150 nM.

Consider `COCCN1C(=O)N(Cc2cccc(OC)c2)C(=O)C12CCN(Cc1cccc3nsnc13)CC2` [Example 101], for which the IC50 stood at 1240 nM.

In the case of `COc1cccc(CN2C(=O)N(CC=C(C)C)C3(CCN(Cc4ccccc4)CC3)C2=O)c1` [Example 109], the IC50 stood at 1520 nM.

The same test, now with this note: Table 4; HEKT-bet cells, compound 24 hours; IC50 normalized to reference ER-213038; read-out: IC50.
On to `COCCN1C(=O)N(Cc2cccc(OC)c2)C(=O)C12CCN(Cc1ccc3ccccc3c1)CC2` [Example 213], for which the IC50 is 337 nM.

Regarding `COCCN1C(=O)N(CCCOc2ccccc2)C(=O)C12CCN(Cc1cccc3ccccc13)CC2` [Example 153], the concentration for half-maximal inhibition (IC50) was found to be 151 nM.

In the case of `COCCN1C(=O)N(CCCOc2ccccc2)C(=O)C12CCN(Cc1cc(OC)cc(OC)c1)CC2` [Example 195], the IC50 turned out to be 264 nM.

Take `COc1cccc(CN2C(=O)N(Cc3ccccn3)C3(CCN(Cc4cc(OC)cc(OC)c4)CC3)C2=O)c1` [Example 179]: the IC50 is 215 nM.

Consider `COCCN1C(=O)N(Cc2ccc3ccccc3c2)C(=O)C12CCN(Cc1cccc(OC)c1)CC2` [Example 166], for which the IC50 was 184 nM.

`COc1cccc(CN2CCC3(CC2)NC(=O)N(C/C=C/c2ccccc2)C3=O)c1` [Example 174]: the IC50 worked out at 198 nM.

With `COCCN1C(=O)N(Cc2cccc(OC)c2)C(=O)C12CCN(Cc1cccc(OC(F)(F)F)c1)CC2` [Example 203], the half-inhibitory concentration (IC50) was determined as 291 nM.

Take `COCCN1C(=O)N(Cc2cccc(OC)c2)C(=O)C12CCN(Cc1cccc(-c3ccco3)c1)CC2` [Example 254]: the IC50 came out at 451 nM.

On to `CCOc1ccc2ccccc2c1CN1CCC2(CC1)C(=O)N(Cc1cccc(OC)c1)C(=O)N2CCOC` [Example 142], for which the IC50 was determined as 130 nM.

For the compound `C=Cc1cccc(CN2CCC3(CC2)C(=O)N(Cc2cccc(OC)c2)C(=O)N3CCOC)c1` [Example 264], the concentration for half-maximal inhibition (IC50) is 500 nM.

For `COCCN1C(=O)N(CCCc2ccccc2)C(=O)C12CCN(Cc1ccc3ccccc3c1)CC2` [Example 284], the 50% inhibitory concentration (IC50) came out at 551 nM.

As for `COCCN1C(=O)N(Cc2cccc(OC)c2)C(=O)C12CCN(Cc1ccc(N(C)C)c3ccccc13)CC2` [Example 194], the IC50 was 262 nM.

Take `COCCN1C(=O)N(Cc2cccc(OC)c2)C(=O)C12CCN(Cc1cc3ccccc3c3ccccc13)CC2` [Example 157]: the half-maximal inhibitory concentration (IC50) is 161 nM.

Turning to `COCCN1C(=O)N(CCCC2CCCCC2)C(=O)C12CCN(Cc1ccccc1)CC2` [Example 246], the IC50 worked out at 435 nM.

In the case of `COCCN1C(=O)N(CCCOc2ccccc2)C(=O)C12CCN(Cc1cccc(C)c1)CC2` [Example 208], the IC50 was determined as 317 nM.

Turning to `COCCN1C(=O)N(Cc2cccc(OC)c2)C(=O)C12CCN(Cc1c(F)ccc(C)c1Cl)CC2` [Example 289], the IC50 came out at 567 nM.

Take `COCCN1C(=O)N(Cc2cccc(OC)c2)C(=O)C12CCN(Cc1c3ccccc3cc3ccccc13)CC2` [Example 160]: the IC50 was determined as 168 nM.

For `COCCN1C(=O)N(Cc2cccc(OC)c2)C(=O)C12CCN(Cc1cccc3ccccc13)CC2` [Example 133], the IC50 was determined as 119 nM.

On to `CCN1C(=O)N(Cc2ccc3ccccc3c2)C(=O)C12CCN(Cc1cccc3ccccc13)CC2` [Example 286], for which the IC50 worked out at 560 nM.

Regarding `COCCN1C(=O)N(Cc2cccc(OC)c2)C(=O)C12CCN(Cc1ccc(C)c(C)c1)CC2` [Example 212], the concentration for half-maximal inhibition (IC50) was 336 nM.

For the compound `COCCN1C(=O)N(Cc2cccc(-n3cccc3)c2)C(=O)C12CCN(Cc1ccccc1)CC2` [Example 256], the IC50 stood at 469 nM.

For `COCCN1C(=O)N(Cc2cc(OC)ccc2OC)C(=O)C12CCN(Cc1cc(OC)cc(OC)c1)CC2` [Example 215], the IC50 came out at 348 nM.

`COCCN1C(=O)N(Cc2cccc(OC)c2)C(=O)C12CCN(Cc1cccc(-c3ccncc3)c1)CC2` [Example 218]: the IC50 turned out to be 351 nM.

For the compound `COCCN1C(=O)N(Cc2cccc(N(C)C)c2)C(=O)C12CCN(Cc1ccccc1)CC2` [Example 189], the IC50 came out at 247 nM.

In the case of `COCCN1C(=O)N(Cc2cccc(OC)c2)C(=O)C12CCN(Cc1ccc(-c3ccccc3)cc1)CC2` [Example 283], the IC50 was 550 nM.

For `COCCN1C(=O)N(Cc2cccc(OC)c2)C(=O)C12CCN(Cc1cc(C)ccc1C)CC2` [Example 150], the IC50 is 147 nM.

As to `COCCCN1C(=O)N(Cc2cccc(OC)c2)C(=O)C12CCN(Cc1cc(OC)cc(OC)c1)CC2` [Example 249], the IC50 was determined as 441 nM.

Consider `COCCN1C(=O)N(C/C=C/c2ccccc2)C(=O)C12CCN(Cc1cccc(OC)c1)CC2` [Example 132], for which the IC50 stood at 101 nM.

As to `COCCN1C(=O)N(Cc2cccc(-c3ccccc3)c2)C(=O)C12CCN(Cc1ccccc1)CC2` [Example 243], the IC50 turned out to be 431 nM.

As for `CNc1cccc(CN2CCC3(CC2)C(=O)N(Cc2cccc(OC)c2)C(=O)N3CCOC)c1` [Example 298], the concentration for half-maximal inhibition (IC50) stood at 589 nM.

Take `COCCN1C(=O)N(CCCOc2ccccc2)C(=O)C12CCN(Cc1cccc(OC)c1)CC2` [Example 220]: the IC50 turned out to be 362 nM.

Regarding `COc1cccc(CN2C(=O)N(Cc3cccc(-n4cccc4)c3)C3(CCN(Cc4cccc5ccccc45)CC3)C2=O)c1` [Example 229], the IC50 amounted to 377 nM.

Regarding `CCc1ccccc1CN1CCC2(CC1)C(=O)N(Cc1cccc(OC)c1)C(=O)N2CCOC` [Example 158], the IC50 turned out to be 164 nM.

As to `COCCN1C(=O)N(Cc2cccc(OC)c2)C(=O)C12CCN(Cc1c(C)cccc1C)CC2` [Example 141], the IC50 was found to be 130 nM.

With `COCCN1C(=O)N(Cc2cccc(OC)c2)C(=O)C12CCN(Cc1ccccc1C)CC2` [Example 193], the IC50 was found to be 261 nM.

As for `COCCN1C(=O)N(Cc2cccc(OC)c2)C(=O)C12CCN(Cc1cccc(OC)c1F)CC2` [Example 301], the half-inhibitory concentration (IC50) stood at 599 nM.

On to `COCN1C(=O)N(C/C=C/c2ccccc2)C(=O)C12CCN(Cc1cc(OC)cc(OC)c1)CC2` [Example 136], for which the IC50 turned out to be 124 nM.

For the compound `C#CCOc1ccc(CN2CCC3(CC2)C(=O)N(Cc2cccc(OC)c2)C(=O)N3CCOC)cc1OC` [Example 261], the IC50 was 490 nM.

On to `COCCN1C(=O)N(Cc2cccc(OC)c2)C(=O)C12CCN(Cc1cccc(N3CCCCC3)c1)CC2` [Example 225], for which the IC50 was 373 nM.

Turning to `COc1cccc(CN2C(=O)N(Cc3ccc4c(c3)nnn4C)C3(CCN(Cc4cccc5ccccc45)CC3)C2=O)c1` [Example 231], the IC50 amounted to 385 nM.

On to `COCCN1C(=O)N(Cc2cccc(OC)c2)C(=O)C12CCN(Cc1cccc3ccccc13)CC2` [Example 128], for which the 50% inhibitory concentration (IC50) was determined as 86 nM.

Consider `CN1C(=O)N(C/C=C/c2ccccc2)C(=O)C12CCN(Cc1cccc3ccccc13)CC2` [Example 184], for which the IC50 stood at 235 nM.

For `COCCN1C(=O)N(Cc2cccc(OC)c2)C(=O)C12CCN(Cc1cccc3c1OCO3)CC2` [Example 210], the concentration for half-maximal inhibition (IC50) was determined as 333 nM.

Consider `COCCN1C(=O)N(Cc2cccc(OC)c2)C(=O)C12CCN(Cc1c(C)c(C)c(C)c(C)c1C)CC2` [Example 164], for which the IC50 is 182 nM.
